According to patent publication US10167262B2, “Herbicidal substituted 3-arylpyrazoles” (FMC CORPORATION, priority 2014, dated 2019):

Experiments:
Test in all cases: Test E pre-/postemergence greenhouse test, plant response rating 0-100
Assay type in all cases: in vivo
[1] = tested on: Brazilian crabgrass (Digitaria horizontalis); conditions: Postemergence, scale 0 to 100
Outline: (§1)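 Sow seeds in silt loam and treat preemergence; at the same time, spray postemergence on 1- to 4-leaf plants in peat/vermiculite mix. Use a non-phytotoxic solvent plus surfactant as carrier. Hold 14–21 days in greenhouse, then score visually 0–100 against controls.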

[2] = tested on: arrowleaf sida (Sida rhombifolia); conditions: for Plant response rating, Arrowleaf Sida: Postemergence; for Arrowleaf Sida plant response rating: Preemergence
Outline: as §1

corn (Zea mays) = conditions: scale 0 to 100; for Plant response rating, Corn: Postemergence; for Corn plant response rating: Preemergence
Outline: as §1

[3] = tested on: dayflower (Virginia (VA) dayflower, Commelina virginica); conditions: scale 0 to 100; for Plant response rating, Dayflower, VA: Postemergence; for Dayflower, VA plant response rating: Preemergence
Outline: as §1

[4] = tested on: fall panicum (Panicum dichotomiflorum); conditions: scale 0 to 100; for Plant response rating, Panicum, Fall: Postemergence; for Panicum, Fall plant response rating: Preemergence
Outline: as §1

[5] = tested on: field bindweed (Convolvulus arvensis); conditions: scale 0 to 100; for Plant response rating, Field Bindweed: Postemergence; for Field Bindweed plant response rating: Preemergence
Outline: as §1

[6] = tested on: hairy beggarticks (Bidens pilosa); conditions: scale 0 to 100; for Plant response rating, Beggarticks: Postemergence; for Beggarticks plant response rating: Preemergence
Outline: as §1

[7] = tested on: palmer pigweed (Amaranthus palmeri); conditions: scale 0 to 100; for Plant response rating, Pigweed, Palmer: Postemergence; for Pigweed, Palmer plant response rating: Preemergence
Outline: as §1

[8] = tested on: sandbur (southern sandbur, Cenchrus echinatus); conditions: scale 0 to 100; for Plant response rating, Sandbur: Postemergence; for Sandbur plant response rating: Preemergence
Outline: as §1

soybean (Glycine max) = conditions: scale 0 to 100; for Plant response rating, Soybean: Postemergence; for Soybean plant response rating: Preemergence
Outline: as §1

[9] = tested on: waterhemp (common waterhemp, Amaranthus rudis); conditions: scale 0 to 100; for Plant response rating, Waterhemp: Postemergence; for Waterhemp plant response rating: Preemergence
Outline: as §1

[10] = tested on: wild poinsettia (Euphorbia heterophylla); conditions: scale 0 to 100; for Plant response rating, Poinsettia, Wild: Postemergence; for Poinsettia, Wild plant response rating: Preemergence
Outline: as §1

O=C(c1ccccc1)c1cn(S(=O)(=O)CC(F)(F)F)nc1-c1cc(Cl)cc(Cl)c1 [Compound 3]
Plant response rating, Crabgrass, Brazil ([1]; 31 g ai/ha): 0
Plant response rating, Crabgrass, Brazil ([1]; 62 g ai/ha): 0
Plant response rating, Crabgrass, Brazil ([1]; 125 g ai/ha): 0
Plant response rating, Crabgrass, Brazil ([1]; 250 g ai/ha): 0
Plant response rating, Crabgrass, Brazil ([1]; 500 g ai/ha): 0
Plant response rating, Arrowleaf Sida ([2]; 31 g ai/ha, scale 0 to 100): 85
Plant response rating, Arrowleaf Sida ([2]; 62 g ai/ha, scale 0 to 100): 95
Plant response rating, Arrowleaf Sida ([2]; 125 g ai/ha, scale 0 to 100): 90
Plant response rating, Arrowleaf Sida ([2]; 250 g ai/ha, scale 0 to 100): 95
Plant response rating, Arrowleaf Sida ([2]; 500 g ai/ha, scale 0 to 100 (0 no effect, 100 complete control)): 98
Arrowleaf Sida plant response rating ([2]; 31 g ai/ha, scale 0 to 100): 0
Arrowleaf Sida plant response rating ([2]; 62 g ai/ha, scale 0 to 100): 40
Arrowleaf Sida plant response rating ([2]; 125 g ai/ha, scale 0 to 100): 70
Arrowleaf Sida plant response rating ([2]; 250 g ai/ha, scale 0 to 100): 90
Arrowleaf Sida plant response rating ([2]; 500 g ai/ha, scale 0 to 100): 98
Plant response rating, Corn (corn (Zea mays); 31 g ai/ha): 0
Plant response rating, Corn (corn (Zea mays); 62 g ai/ha): 0
Plant response rating, Corn (corn (Zea mays); 125 g ai/ha): 0
Plant response rating, Corn (corn (Zea mays); 250 g ai/ha): 0
Plant response rating, Corn (corn (Zea mays); 500 g ai/ha): 0
Corn plant response rating (corn (Zea mays); 31 g ai/ha): 0
Corn plant response rating (corn (Zea mays); 62 g ai/ha): 0
Corn plant response rating (corn (Zea mays); 125 g ai/ha): 0
Corn plant response rating (corn (Zea mays); 250 g ai/ha): 0
Corn plant response rating (corn (Zea mays); 500 g ai/ha): 0
Plant response rating, Dayflower, VA ([3]; 31 g ai/ha): 0
Plant response rating, Dayflower, VA ([3]; 62 g ai/ha): 0
Plant response rating, Dayflower, VA ([3]; 125 g ai/ha): 0
Plant response rating, Dayflower, VA ([3]; 250 g ai/ha): 0
Plant response rating, Dayflower, VA ([3]; 500 g ai/ha): 0
Dayflower, VA plant response rating ([3]; 125 g ai/ha): 0
Dayflower, VA plant response rating ([3]; 250 g ai/ha): 0
Dayflower, VA plant response rating ([3]; 500 g ai/ha): 0
Plant response rating, Panicum, Fall ([4]; 31 g ai/ha): 0
Plant response rating, Panicum, Fall ([4]; 62 g ai/ha): 0
Plant response rating, Panicum, Fall ([4]; 125 g ai/ha): 0
Plant response rating, Panicum, Fall ([4]; 250 g ai/ha): 0
Plant response rating, Panicum, Fall ([4]; 500 g ai/ha): 0
Panicum, Fall plant response rating ([4]; 31 g ai/ha): 0
Panicum, Fall plant response rating ([4]; 62 g ai/ha): 0
Panicum, Fall plant response rating ([4]; 125 g ai/ha): 0
Panicum, Fall plant response rating ([4]; 250 g ai/ha): 0
Panicum, Fall plant response rating ([4]; 500 g ai/ha): 0
Plant response rating, Field Bindweed ([5]; 31 g ai/ha): 0
Plant response rating, Field Bindweed ([5]; 62 g ai/ha): 0
Plant response rating, Field Bindweed ([5]; 125 g ai/ha): 0
Plant response rating, Field Bindweed ([5]; 250 g ai/ha): 0
Plant response rating, Field Bindweed ([5]; 500 g ai/ha): 0
Field Bindweed plant response rating ([5]; 31 g ai/ha): 0
Field Bindweed plant response rating ([5]; 62 g ai/ha): 0
Field Bindweed plant response rating ([5]; 125 g ai/ha): 0
Field Bindweed plant response rating ([5]; 250 g ai/ha): 0
Field Bindweed plant response rating ([5]; 500 g ai/ha): 65
Plant response rating, Beggarticks ([6]; 31 g ai/ha): 60
Plant response rating, Beggarticks ([6]; 62 g ai/ha): 95
Plant response rating, Beggarticks ([6]; 125 g ai/ha): 98
Plant response rating, Beggarticks ([6]; 250 g ai/ha): 98
Plant response rating, Beggarticks ([6]; 500 g ai/ha): 98
Beggarticks plant response rating ([6]; 31 g ai/ha): 0
Beggarticks plant response rating ([6]; 62 g ai/ha): 0
Beggarticks plant response rating ([6]; 125 g ai/ha): 25
Beggarticks plant response rating ([6]; 250 g ai/ha): 25
Beggarticks plant response rating ([6]; 500 g ai/ha): 30
Plant response rating, Pigweed, Palmer ([7]; 31 g ai/ha): 40
Plant response rating, Pigweed, Palmer ([7]; 62 g ai/ha): 50
Plant response rating, Pigweed, Palmer ([7]; 125 g ai/ha): 75
Plant response rating, Pigweed, Palmer ([7]; 250 g ai/ha): 90
Plant response rating, Pigweed, Palmer ([7]; 500 g ai/ha): 75
Pigweed, Palmer plant response rating ([7]; 31 g ai/ha): 0
Pigweed, Palmer plant response rating ([7]; 62 g ai/ha): 20
Pigweed, Palmer plant response rating ([7]; 125 g ai/ha): 65
Pigweed, Palmer plant response rating ([7]; 250 g ai/ha): 50
Pigweed, Palmer plant response rating ([7]; 500 g ai/ha): 100
Plant response rating, Sandbur ([8]; 31 g ai/ha): 0
Plant response rating, Sandbur ([8]; 62 g ai/ha): 0
Plant response rating, Sandbur ([8]; 125 g ai/ha): 0
Plant response rating, Sandbur ([8]; 250 g ai/ha): 0
Plant response rating, Sandbur ([8]; 500 g ai/ha): 0
Sandbur plant response rating ([8]; 31 g ai/ha): 0
Sandbur plant response rating ([8]; 62 g ai/ha): 0
Sandbur plant response rating ([8]; 125 g ai/ha): 15
Sandbur plant response rating ([8]; 250 g ai/ha): 15
Sandbur plant response rating ([8]; 500 g ai/ha): 90
Plant response rating, Soybean (soybean (Glycine max); 31 g ai/ha): 0
Plant response rating, Soybean (soybean (Glycine max); 62 g ai/ha): 0
Plant response rating, Soybean (soybean (Glycine max); 125 g ai/ha): 0
Plant response rating, Soybean (soybean (Glycine max); 250 g ai/ha): 0
Plant response rating, Soybean (soybean (Glycine max); 500 g ai/ha): 0
Soybean plant response rating (soybean (Glycine max); 31 g ai/ha): 0
Soybean plant response rating (soybean (Glycine max); 62 g ai/ha): 0
Soybean plant response rating (soybean (Glycine max); 125 g ai/ha): 0
Soybean plant response rating (soybean (Glycine max); 500 g ai/ha): 0
Plant response rating, Waterhemp ([9]; 31 g ai/ha): 95
Plant response rating, Waterhemp ([9]; 62 g ai/ha): 98
Plant response rating, Waterhemp ([9]; 125 g ai/ha): 98
Plant response rating, Waterhemp ([9]; 250 g ai/ha): 90
Plant response rating, Waterhemp ([9]; 500 g ai/ha): 98
Waterhemp plant response rating ([9]; 31 g ai/ha): 0
Waterhemp plant response rating ([9]; 62 g ai/ha): 50
Waterhemp plant response rating ([9]; 125 g ai/ha): 75
Waterhemp plant response rating ([9]; 250 g ai/ha): 85
Waterhemp plant response rating ([9]; 500 g ai/ha): 98
Plant response rating, Poinsettia, Wild ([10]; 31 g ai/ha): 0
Plant response rating, Poinsettia, Wild ([10]; 62 g ai/ha): 0
Plant response rating, Poinsettia, Wild ([10]; 125 g ai/ha): 0
Plant response rating, Poinsettia, Wild ([10]; 250 g ai/ha): 15
Plant response rating, Poinsettia, Wild ([10]; 500 g ai/ha): 10
Poinsettia, Wild plant response rating ([10]; 125 g ai/ha): 0
Poinsettia, Wild plant response rating ([10]; 250 g ai/ha): 0
Poinsettia, Wild plant response rating ([10]; 500 g ai/ha): 0
